# From patent US10059713B2 (Takeda Pharmaceutical Company Limited, priority 2014, dated 2018)
# Target: human GPR43 (Homo sapiens (Human), UniProt O15552)
# Test: Ca-Flux functional assay: determination of agonist/positive allosteric modulator (PAM) activity
# Assay type: cell-based
# Settings: CHO-K1 Gα16 cells stably expressing human GPR43; compound added with EC20 sodium acetate; intracellular Ca2+ by FLIPR; does not distinguish agonist from PAM
# Method: Ca-Flux Functional Assay: Determination of Agonist/Positive Allosteric Modulator (PAM) Activity
# GPR43 agonist/PAM activity was determined by measuring changes in intracellular calcium levels using a Ca^2+ sensitive fluorescent dye. The changes in fluorescent signal were monitored by FLIPR (manufactured by Molecular Devices). GPR43 mediated increases in intracellular Ca^2+ concentration were readily detected upon activation with sodium acetate. Prior to the assay (24 hours), CHO-K1 Gα16 cells stably expressing human GPR43 were-seeded in cell culture medium in black, clear-bottom 384-well plates (Corning Inc) and grown overnight at 37° C., 5% CO2. On the day of the assay, cell culture media was removed and cells were loaded with Calcium 5 Dye (Molecular Devices) diluted in HBSS containing 25 mM HEPES, 2.5 mM Probenecid, 0.1% BSA for 1 hour at 37° C., 5% CO2. 10 point half log concentration response curves of sodium acetate from 10 mM were conducted prior to the testing of compounds to calculate the sodium acetate concentration that produces 20% of the maximal response (EC20). Test compounds (at 10 point half log concentration response curves from 10 μM) were added in the presence of sodium acetate to achieve a final concentration that produces approximately 20% maximal response as calculated from the previous experiment. The changes in fluorescent signal were monitored by FLIPR upon addition of the compound/EC20 sodium acetate mix. The EC50 values were determined from ten point concentration response curves. Curves were generated using the average of two wells for each data point.
# The above assay detects both GPR43 receptor agonists and positive allosteric modulators of the GPR43 receptor, without distinguishing between the two. Activity in either regard is useful in the treatment of conditions associated with GPR43 receptor activity.
# Sequence of human GPR43 (O15552 whole entry): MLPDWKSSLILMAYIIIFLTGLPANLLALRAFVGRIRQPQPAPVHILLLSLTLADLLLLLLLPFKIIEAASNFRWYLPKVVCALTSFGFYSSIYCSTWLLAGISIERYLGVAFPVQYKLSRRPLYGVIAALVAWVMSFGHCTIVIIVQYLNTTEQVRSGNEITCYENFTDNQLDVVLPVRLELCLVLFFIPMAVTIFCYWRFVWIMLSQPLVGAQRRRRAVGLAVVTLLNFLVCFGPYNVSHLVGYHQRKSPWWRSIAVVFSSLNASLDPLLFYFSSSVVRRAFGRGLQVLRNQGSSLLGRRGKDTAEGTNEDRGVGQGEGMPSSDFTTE
row,SMILES,EC50 [nM]
1,"O=S(=O)(c1ccccc1)c1c(NC2CCC(F)(F)CC2)[nH]c2ncccc12 [Example 1, 3-(benzenesulfonyl)-N-(4,4-difluorocyclohexyl)-1H-pyrrolo[2,3-b]pyridin-2-amine]",5500
2,"Nc1[nH]c2c(C3=CCCCC3)ncnc2c1S(=O)(=O)c1ccccc1 [Example 2, 7-(benzenesulfonyl)-4-(cyclohex-1-en-1-yl)-5H-pyrrolo[3,2-d]pyrimidin-6-amine]",21
3,"Nc1[nH]c2c(C3CCCCC3)ncnc2c1S(=O)(=O)c1ccccc1 [Example 3, 7-(benzenesulfonyl)-4-cyclohexyl-5H-pyrrolo[3,2-d]pyrimidin-6-amine]",43
4,"COc1ccc(S(=O)(=O)c2c(N)[nH]c3c(C4=CCCCC4)ncnc23)cc1 [Example 4, 4-(cyclohex-1-en-1-yl)-7-[(4-methoxybenzene)sulfonyl]-5H-pyrrolo[3,2-d]pyrimidin-6-amine]",25
5,"COc1ccc(S(=O)(=O)c2c(N)[nH]c3c(C4CCCCC4)ncnc23)cc1 [Example 5, 4-cyclohexyl-7-[(4-methoxybenzene)sulfonyl]-5H-pyrrolo[3,2-d]pyrimidin-6-amine]",80
6,"Nc1[nH]c2c(N3CCOCC3)ncnc2c1S(=O)(=O)c1ccccc1 [Example 6, 7-(benzenesulfonyl)-4-(morpholin-4-yl)-5H-pyrrolo[3,2-d]pyrimidin-6-amine]",273
7,"Nc1[nH]c2c(N3CCCCC3)ncnc2c1S(=O)(=O)c1ccccc1 [Example 7, 7-(benzenesulfonyl)-4-(piperidin-1-yl)-5H-pyrrolo[3,2-d]pyrimidin-6-amine]",47
8,"Cc1nc(N2CCOC(C)(C)C2C)c2[nH]c(N)c(S(=O)(=O)c3ccccc3F)c2n1 (stereo not shown) [Example 8, 7-(2-fluorobenzenesulfonyl)-2-methyl-4-(2,2,3-trimethylmorpholin-4-yl)-5H-pyrrolo[3,2-d]pyrimidin-6-amine]",3
9,"Nc1[nH]c2c(-c3ccccc3)ncnc2c1S(=O)(=O)c1ccccc1 [Example 9, 7-(benzenesulfonyl)-4-phenyl-5H-pyrrolo[3,2-d]pyrimidin-6-amine]",48
10,"Nc1[nH]c2cc(Cl)cnc2c1S(=O)(=O)c1ccccc1 [Example 10, 3-(benzenesulfonyl)-6-chloro-1H-pyrrolo[3,2-b]pyridin-2-amine]",626
11,"Nc1[nH]c2c(/C=C/C3CC3)ncnc2c1S(=O)(=O)c1ccccc1 [Example 11, 7-(benzenesulfonyl)-4-[(E)-2-cyclopropylethenyl]-5H-pyrrolo[3,2-d]pyrimidin-6-amine]",112
12,"C=C(C)c1ncnc2c(S(=O)(=O)c3ccccc3)c(N)[nH]c12 [Example 12, 7-(benzenesulfonyl)-4-(prop-1-en-2-yl)-5H-pyrrolo[3,2-d]pyrimidin-6-amine]",355
13,"Nc1[nH]c2c(CCC3CC3)ncnc2c1S(=O)(=O)c1ccccc1 [Example 13, 7-(benzenesulfonyl)-4-(2-cyclopropylethyl)-5H-pyrrolo[3,2-d]pyrimidin-6-amine]",267
14,"COc1ccc(N(C)S(=O)(=O)c2c(N)[nH]c3c(C4=CCCCC4)ncnc23)cc1 [Example 14, 6-amino-4-(cyclohex-1-en-1-yl)-N-(4-methoxyphenyl)-N-methyl-5H-pyrrolo[3,2-d]pyrimidine-7-sulfonamide]",2580
15,"CC(C)c1ncnc2c(S(=O)(=O)c3ccccc3)c(N)[nH]c12 [Example 15, 7-(benzenesulfonyl)-4-(propan-2-yl)-5H-pyrrolo[3,2-d]pyrimidin-6-amine]",1060
16,"Nc1[nH]c2c(C3=CCCCC3)cncc2c1S(=O)(=O)c1ccccc1 [Example 16, 3-(benzenesulfonyl)-7-(cyclohex-1-en-1-yl)-1H-pyrrolo[3,2-c]pyridin-2-amine]",21
17,"COC(=O)Nc1[nH]c2c(C3=CCCCC3)ncnc2c1S(=O)(=O)c1ccccc1 [Example 17, Methyl-N-[7-(benzenesulfonyl)-4-(cyclohex-1-en-1-yl)-5H-pyrrolo[3,2-d]pyrimidin-6-yl]carbamate]",5090
18,"Nc1[nH]c2c(C3=CCCCC3)nccc2c1S(=O)(=O)c1ccccc1 [Example 18, 3-(benzenesulfonyl)-7-(cyclohex-1-en-1-yl)-1H-pyrrolo[2,3-c]pyridin-2-amine]",528
19,"Cc1nc(C2=CCCCC2)c2[nH]c(N)c(S(=O)(=O)c3ccccc3)c2n1 [Example 19, 7-(benzenesulfonyl)-4-(cyclohex-1-en-1-yl)-2-methyl-5H-pyrrolo[3,2-d]pyrimidin-6-amine]",28
20,"Nc1[nH]c2c(C3=CCCCC3)ncnc2c1S(=O)(=O)c1ccccn1 [Example 20, 4-(cyclohex-1-en-1-yl)-7-(pyridine-2-sulfonyl)-5H-pyrrolo[3,2-d]pyrimidin-6-amine]",317

# Other lines, results leading:
row,EC50 [nM],SMILES
1,5,"Cc1nc(N2CCO[C@H](C)[C@@H]2C)c2[nH]c(N)c(S(=O)(=O)c3ccccc3F)c2n1 (racemic) [Example 275, 4-[(RS,SR)-2,3-dimethylmorpholin-4-yl]-7-(2-fluorobenzenesulfonyl)-2-methyl-5H-pyrrolo[3,2-d]pyrimidin-6-amine]"
2,54,"Nc1[nH]c2c(C3=CCCCC3)ncnc2c1S(=O)(=O)c1ccc(Cl)cc1 [Example 21, 7-[(4-chlorobenzene)sulfonyl]-4-(cyclohex-1-en-1-yl)-5H-pyrrolo[3,2-d]pyrimidin-6-amine]"
3,73,"Nc1[nH]c2c(C3=CCCC3)ncnc2c1S(=O)(=O)c1ccccc1 [Example 22, 7-(benzenesulfonyl)-4-(cyclopent-1-en-1-yl)-5H-pyrrolo[3,2-d]pyrimidin-6-amine]"
4,97,"Nc1[nH]c2c(C3CCCC3)ncnc2c1S(=O)(=O)c1ccccc1 [Example 23, 7-(benzenesulfonyl)-4-cyclopentyl-5H-pyrrolo[3,2-d]pyrimidin-6-amine]"
5,19,"Nc1[nH]c2c(N3CCC(F)(F)CC3)ncnc2c1S(=O)(=O)c1ccccc1 [Example 24, 7-(benzenesulfonyl)-4-(4,4-difluoropiperidin-1-yl)-5H-pyrrolo[3,2-d]pyrimidin-6-amine]"
6,288,"Nc1[nH]c2cc(C3=CCCCC3)cnc2c1S(=O)(=O)c1ccccc1 [Example 25, 3-(benzenesulfonyl)-6-(cyclohex-1-en-1-yl)-1H-pyrrolo[3,2-b]pyridin-2-amine]"
7,46,"Nc1[nH]c2c(C3=CCCCC3)ncnc2c1S(=O)(=O)c1ccc(F)cc1 [Example 26, 4-(cyclohex-1-en-1-yl)-7-[(4-fluorobenzene)sulfonyl]-5H-pyrrolo[3,2-d]pyrimidin-6-amine]"
8,89,"Nc1[nH]c2c(C3CCCCC3)ncnc2c1S(=O)(=O)c1ccc(F)cc1 [Example 27, 4-cyclohexyl-7-[(4-fluorobenzene)sulfonyl]-5H-pyrrolo[3,2-d]pyrimidin-6-amine]"
9,647,"COC1CCN(c2ncnc3c(S(=O)(=O)c4ccccc4)c(N)[nH]c23)CC1 [Example 28, 7-(benzenesulfonyl)-4-(4-methoxypiperidin-1-yl)-5H-pyrrolo[3,2-d]pyrimidin-6-amine]"
10,399,"Nc1[nH]c2c(N3CCC(F)(F)C3)ncnc2c1S(=O)(=O)c1ccccc1 [Example 29, 7-(benzenesulfonyl)-4-(3,3-difluoropyrrolidin-1-yl)-5H-pyrrolo[3,2-d]pyrimidin-6-amine]"
11,9530,"Nc1[nH]c2c(N3CCC3)ncnc2c1S(=O)(=O)c1ccccc1 [Example 30, 4-(azetidin-1-yl)-7-(benzenesulfonyl)-5H-pyrrolo[3,2-d]pyrimidin-6-amine]"
12,720,"Nc1[nH]c2c(N3CCCC3)ncnc2c1S(=O)(=O)c1ccccc1 [Example 31, 7-(benzenesulfonyl)-4-(pyrrolidin-1-yl)-5H-pyrrolo[3,2-d]pyrimidin-6-amine]"
13,37,"Nc1[nH]c2c(C3CCCCC3)cncc2c1S(=O)(=O)c1ccccc1 [Example 32, 3-(benzenesulfonyl)-7-cyclohexyl-1H-pyrrolo[3,2-c]pyridin-2-amine]"
14,52,"Nc1[nH]c2c(C3=CCCCC3)ncnc2c1S(=O)(=O)c1ccc(OC(F)F)cc1 [Example 33, 4-(cyclohex-1-en-1-yl)-7-{[4-(difluoromethoxy)benzene]sulfonyl}-5H-pyrrolo[3,2-d]pyrimidin-6-amine]"
15,89,"Nc1[nH]c2c(N3CCCC(F)(F)C3)ncnc2c1S(=O)(=O)c1ccccc1 [Example 34, 7-(benzenesulfonyl)-4-(3,3-difluoropiperidin-1-yl)-5H-pyrrolo[3,2-d]pyrimidin-6-amine]"
16,7520,"CNc1[nH]c2c(C3CCCCC3)ncnc2c1S(=O)(=O)c1ccccc1 [Example 35, 7-(benzenesulfonyl)-4-cyclohexyl-N-methyl-5H-pyrrolo[3,2-d]pyrimidin-6-amine]"
17,87,"Nc1[nH]c2c(C3CCCCC3)ncnc2c1S(=O)(=O)c1ccc(OC(F)F)cc1 [Example 36, 4-cyclohexyl-7-{[4-(difluoromethoxy)benzene]sulfonyl}-5H-pyrrolo[3,2-d]pyrimidin-6-amine]"
